The text below walks through data of patent US8163939B2, “Ascorbic acid derivative or salt thereof, production method thereof, and cosmetic” (Seikwa Kasei Company, Limited, priority 2007, dated 2012).

Data set [1] in a line: Moisturizing test: moisturizing effect by water retention force. It is filed as physicochemical. As for the experimental part:
A sample shown later was dried, and the dried sample was spread in an amount of about 0.4 g (this weight is represented by W0) on the bottom of a weighing bottle (diameter: 3.6 cm, height excluding lid: 1.8 cm) so as to give uniform thickness. The sample contained in the weighing bottle was allowed to stand still in a constant humidity and constant temperature vessel (ENVIROS KCL-1000, TOKYO RIKAKIKAI CO, LTD) under environments of 25° C. and 65% RH. The weight was measured periodically, waiting until sufficient moisture absorption to attain equilibrium of weight increase (about 48 hours). Thereafter, the sample was transferred to under environments of 25° C. and 20% RH (in sealed vessel containing a saturated CH3COOK aqueous solution filled in the bottom part). From the weight after 24 hours (this weight is represented by W1), the amount of retained water per 1 g of the dried sample was calculated according to the following formula. (W1−W0)/W0
From the water amount thus calculated, the moisturizing effect was judged based on the following judging criterion, and the results are shown in Table 43.
Three compounds: 2,3-di-O-glyceryl ascorbic acid, 2,3-di-O-phenylglyceryl ascorbic acid, and glycerin, and
Six compounds: ascorbic acid, ascorbic acid glucoside, 2-O-glyceryl ascorbic acid, 3-O-glyceryl ascorbic acid, 3-O-butylglyceryl ascorbic acid and 3-O-octylglyceryl ascorbic acid, which were adjusted to pH7 with a dilute sodium hydroxide aqueous solution and concentrated.
◯: 25 mg or more and less than 40 mg
Δ: 10 mg or more and less than 25 mg

Data set [2] in a line: Stability Test 2: 2% aqueous solution, pH7, 50° C., 4 weeks (residual rate, odor, coloration). It is filed as physicochemical. As for the experimental part: (§1) Aqueous solutions (2%) of various test samples were adjusted to pH7 with a dilute sodium hydroxide aqueous solution, and charged into 50 mL screw tubes, and the tubes were sealed and stored at room temperature for 4 weeks. Thereafter, HPLC measurement were performed (using liquid chromatography manufactured by Tosoh Corp.) and the residual rate was obtained based on the peak area. The residual rate, odor(odor change) and degree of coloration were evaluated based on the following methods and standards, and the results are shown in Table 41.
The same test as in Test Example 2 was carried out excepting that the sample was stored at 50° C. for 4 weeks instead of storing at room temperature for 4 weeks.

Data set [3] has as its system Normal human dermal fibroblasts. The data set is described as follows: Collagen production of human fibroblast 2 (100 μM or 500 μM; 2, 4 and 7 days). As to conditions: for Collagen production amount in comparison with the control group (% value when the control group is 100%): 100 μM or 500 μM (not stated which), average ± standard error, N=4. It is filed as cell-based. As for the experimental part: (§2) Normal human dermal fibroblasts were regulated with a 10% (v/v) fetal bovine serum (manufactured by Roshe Diagnostics)-containing D-MEM so as to give a cell density of 2.5×10^4 cells/well, then, pre-incubation for 24 hours was performed on a 96-well plate. After the medium was removed, a sample regulated with a 5% (v/v) fetal bovine serum-containing D-MEM to a concentration of 100 μM was added to each well, then, cultured for 48 hours under 37° C. and 5% CO2. After completion of culturing, the amount of free collagen was measured using Sircol collagen assay kit (manufactured by Biocolor). The measurement was carried out at N=4.
Free collagen was measured under the same conditions as in Test Example 5 excepting that the concentration of each sample was 100 μM or 500 μM and culturing was carried out for 2 days, 4 days and 7 days. The measurement was carried out at N=4, and the average and standard error, in four test examples, of values of the collagen production amount in comparison with the control group (% value when the control group is 100%) are shown in Tables 46 and 47.

The subject of another data set is B16 melanoma 4A5 cell. The data set is described as follows: Whitening test: theophylline-induced melanine production in B16 melanoma 4A5 cells.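 Note: grades: ± under 20% + 20-40% ++ 40-70% +++ 70-100% suppression.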 It is filed as cell-based, mouse. As to conditions: sample at a concentration of 100 μM or less; theophylline-induced melanine production; 3 days culture; N=4. How it is done:
As a test for a whitening effect, evaluation of the action of B16 melanoma 4A5 cell on theophylline-induced melanine production was carried out on an ascorbic acid derivative of the present invention, according to the following procedure. The same evaluation was carried out also on ascorbic acid, known compounds: ascorbic acid salts, and ascorbic acid derivatives, as comparison. The results are shown in Tables 38 to 40. • (1) B16 mouse melanoma 4A5 strain was sowed onto a 48-well plate at a cell density of 2.0×10^4 cells/well. • (2) Culturing was performed for 24 hours with Dulbecco's Modified Eagle's medium (manufactured by SIGMA. Hereinafter, abbreviated as D-MEM) containing 10% fetal bovine serum (manufactured by Roshe Diagnostics). Then, it was changed to 0.2 mM theophylline and a 10% fetal bovine serum-containing D-MEM which contains a sample of given concentration. • (3) After culturing for 3 days in the co-existence of a sample, the medium was removed using an aspirator. Then, after distilled water was added, cells were broken by an ultrasonic wave. • (4) Thereafter, the amount of protein was determined using BCA protein assay kit (manufactured by PIERCE), and the produced amount of melanine was measured by an alkali solubilizing method. To the cell-destructed solution was added sodium hydroxide so as to give a final concentration of 2N and the mixture was dissolved by heating (60° C., 15 minutes), then, the absorbance at 450 nm was measured using a micro plate reader. The melanine amount was calculated from a calibration curve made using synthetic melanine (SIGMA) as a standard. The melanine amount per unit protein was calculated by dividing the melanine amount by the protein amount. • (5) The melanine production suppressing rate was calculated according to the following formula. Melanine production suppressing rate (%)=[1−(A−B)/(C−B)]×100 [wherein, A represents the melanine amount per unit protein (g/g) in adding a sample, B represents the melanine amount per unit protein (g/g) in the normal group, and C represents the melanine amount per unit protein (g/g) in the control group.]
In the following Tables, the melanine production suppressing rate in measuring a sample at a concentration of 100 μM or less is expressed as described below. The measurement was carried out at N=4.

Data set [4] concerns Normal human dermal fibroblasts. The data set is described as follows: Collagen production of human fibroblast (Sircol collagen assay, 100 μM, 48 hours). The following applies: Homo sapiens, Fibroblast, cultured 48 hours, N=4, read-out: Collagen production promoting effect (collagen production amount, % of control group). Format: cell-based. As for the experimental part: as §2
The collagen production amount in measuring a sample at a concentration of 100 μM was compared with the control group, and the results thereof (% value when the control group is 100%) are shown in Tables 44 and 45 based on the following standard.

Data set [5] is described as follows: Stability Test 1: 2% aqueous solution, pH7, room temperature, 4 weeks (residual rate, odor, coloration). It is filed as physicochemical. How it is done:
as §1
◯: 80% or more and less than 90%
Δ: 60% or more and less than 80%
X: 20% or more and less than 60%
It was evaluated according to the following criterion by 10 panelists.
Based on the evaluation results, classification was conducted as shown below.
◯: total point of 10 panelists is 25 or more
Δ: total point of 10 panelists is 16 to 24
X: total point of 10 panelists is 15 or less
3: almost no change as compared with that immediately after preparation
2: coloration is observed as compared with that immediately after preparation
1: intense coloration is observed as compared with that immediately after preparation

Setting [6] is: storage period 2 weeks, 10 panelists.
[7] abbreviates: storage period 4 weeks, 10 panelists.

Regarding `O=C1O[C@H]([C@@H](O)CO)C(O)=C1OCC(O)CO` (stereo partly shown) [2-O-glycerylascorbic acid], the “Judgement of moisturizing effect (water amount)” value (from here on “Judgement of moisturizing effect”) in data set [1] is listed as “⊚ (⊚: 40 mg or more)”.

Turning to 3-O-butylglycerylascorbic acid, in data set [1], the “Judgement of moisturizing effect” value is “◯ (◯: 25 mg or more and less than 40 mg)”.

With `CCOC1=C(O)C(=O)O[C@@H]1[C@@H](O)CO` [3-O-ethylascorbic acid, reference compound], the Residual rate entry in data set [2] (storage period 0) is “◯ (◯: 80% or more and less than 90%)”; in data set [2] (storage period 2 weeks) it was “X (X: 20% or more and less than 60%)”; in data set [2] (storage period 4 weeks), “X (X: 20% or more and less than 60%)”; in data set [5] (storage period 0), “⊚ (⊚: 90% or more)”; in data set [5] (storage period 2 weeks) it was “◯ (◯: 80% or more and less than 90%)”; in data set [5] (storage period 4 weeks), “◯ (◯: 80% or more and less than 90%)”. For the same molecule, the Coloration result in data set [2] (storage period 0, 10 panelists) is on record as “◯ (◯: total point of 10 panelists is 25 or more)”; in data set [2] (setting [6]), “Δ (Δ: total point of 10 panelists is 16 to 24)”; in data set [2] (setting [7]), “Δ (Δ: total point of 10 panelists is 16 to 24)”; in data set [5] (storage period 0, 10 panelists), “◯ (◯: total point of 10 panelists is 25 or more)”; in data set [5] (setting [6]) it was “◯ (◯: total point of 10 panelists is 25 or more)”; in data set [5] (setting [7]) it was “Δ (Δ: total point of 10 panelists is 16 to 24)”. For the same molecule, the Odor result is given as “◯ (◯: total point of 10 panelists is 25 or more)” in data set [2] (storage period 0, 10 panelists); “Δ (Δ: total point of 10 panelists is 16 to 24)” in data set [2] (setting [6]); “Δ (Δ: total point of 10 panelists is 16 to 24)” in data set [2] (setting [7]); “◯ (◯: total point of 10 panelists is 25 or more)” in data set [5] (storage period 0, 10 panelists); “◯ (◯: total point of 10 panelists is 25 or more)” in data set [5] (setting [6]); “◯ (◯: total point of 10 panelists is 25 or more)” in data set [5] (setting [7]). The “collagen production promoting effect over time (in words)” value in data set [3] (100 μM or 500 μM, culturing 2, 4 and 7 days) was “lowers over time”. The “Collagen production amount in comparison with the control group (% value when the control group is 100%)” value in data set [3] (Table 46, culturing period 2 days) turned out to be 140 ± 4%; in data set [3] (Table 46, culturing period 4 days) it was 138 ± 2%; in data set [3] (Table 46, culturing period 7 days), 106 ± 14%. For the same molecule, the “Whitening effect (melanine production suppressing rate)” value in the data set with B16 melanoma 4A5 cell is given as “+ (20 to 40%:+)”. The activity at 100 µM in data set [4] lay in the range of 100 to 200%.

Turning to 2,3-di-O-phenylglycerylascorbic acid, the “Judgement of moisturizing effect” value in data set [1] is “Δ (Δ: 10 mg or more and less than 25 mg)”.

Regarding `O=C1O[C@H]([C@@H](O)CO)C(OCC(O)CO)=C1OCC(O)CO` (stereo partly shown) [2,3-di-O-glycerylascorbic acid], the “Judgement of moisturizing effect” value in data set [1] is “⊚ (⊚: 40 mg or more)”.

With `OCC(O)CO` [glycerin, reference compound], the “Judgement of moisturizing effect” value in data set [1] is listed as “⊚ (⊚: 40 mg or more)”.

Consider 3-O-octylglycerylascorbic acid, for which the “Judgement of moisturizing effect” value in data set [1] is “Δ (Δ: 10 mg or more and less than 25 mg)”.

On to `O=C1O[C@H]([C@@H](O)CO)C(OCC(O)CO)=C1O` (stereo partly shown) [Example 1, 3-O-glyceryl ascorbic acid], for which, in data set [1] (conclusion from Table 43, compared with ascorbic acid), the “moisturizing effect (in words)” value is on record as “more excellent moisturizing effect than ascorbic acid”.

As for `CCCCCCCCOC1=C(OCC(O)CO)[C@@H]([C@@H](O)CO)OC1=O` (stereo partly shown) [Example 14, 3-O-glyceryl-2-O-octyl ascorbic acid], the Residual rate result in data set [2] (storage period 0), in data set [2] (storage period 2 weeks), in data set [2] (storage period 4 weeks), in data set [5] (storage period 0), in data set [5] (storage period 2 weeks) and in data set [5] (storage period 4 weeks) was “⊚ (⊚: 90% or more)” each time. In addition, the Coloration entry in data set [2] (storage period 0, 10 panelists) was “◯ (◯: total point of 10 panelists is 25 or more)”; in data set [2] (setting [6]), “◯ (◯: total point of 10 panelists is 25 or more)”; in data set [2] (setting [7]), “◯ (◯: total point of 10 panelists is 25 or more)”; in data set [5] (storage period 0, 10 panelists), “◯ (◯: total point of 10 panelists is 25 or more)”; in data set [5] (setting [6]), “◯ (◯: total point of 10 panelists is 25 or more)”; in data set [5] (setting [7]) it was “◯ (◯: total point of 10 panelists is 25 or more)”. Besides, the Odor result in data set [2] (storage period 0, 10 panelists) is “◯ (◯: total point of 10 panelists is 25 or more)”; in data set [2] (setting [6]), “◯ (◯: total point of 10 panelists is 25 or more)”; in data set [2] (setting [7]), “◯ (◯: total point of 10 panelists is 25 or more)”; in data set [5] (storage period 0, 10 panelists), “◯ (◯: total point of 10 panelists is 25 or more)”; in data set [5] (setting [6]) it was “◯ (◯: total point of 10 panelists is 25 or more)”; in data set [5] (setting [7]) it was “◯ (◯: total point of 10 panelists is 25 or more)”. The “Collagen production amount in comparison with the control group (% value when the control group is 100%)” value is given as 132 ± 22% in data set [3] (Table 47, culturing period 2 days); 144 ± 9% in data set [3] (Table 47, culturing period 4 days); 238 ± 17% in data set [3] (Table 47, culturing period 7 days). For the same molecule, the “Whitening effect (melanine production suppressing rate)” value in the data set on B16 melanoma 4A5 cell is listed as “+++ (70 to 100%:+++)”. For the same molecule, the activity at 100 µM in data set [4] was 100 to 200%.

Regarding `O=C1O[C@H]([C@@H](O)CO)C(OCC(O)CO)=C1O` (stereo partly shown) [3-O-glycerylascorbic acid], in data set [1], the “Judgement of moisturizing effect” value is “◯ (◯: 25 mg or more and less than 40 mg)”.
